These results are taken from patent US6790824B1, “Cytokines having neurotrophic activity” (Biopharm Gesellschaft zur biotechnologischen Entwicklung …, priority 1997, dated 2004).

What all share (assay type): cell-based
The test system of assay [1] is embryonic chicken dorsal root ganglia (DRG) neurons. Briefly: Survival of dissociated embryonic chick dorsal root ganglia (DRG) neurons, 48 h, counting of surviving neurons. To be noted: for effect on DRG neuron survival when added together with GDF-5: factor at saturating concentration plus GDF-5 20 ng/ml, E8, 48 h. As for the experimental part:
Dissociated cultures of embryonic chicken dorsal root ganglia (DRG) were generated as described in details by Krieglstein and Unsicker (Neurochem. Res., 21(7) (1996) 843-850). Briefly, DRGs from white Leghorn chick embryos (day 8) were dissected in Ca^2+-Mg^2+ free Hanks' balanced salt solution. After incubation in 0.08% trypsin for 15 min ganglia were dissociated by trituration. Cells were seeded in polyomithin-laminin coated 96-well microtiter plates (A/2 Costar) at a density of 1,200 cells/well. Growth factors were applied at the time of plating in a final volume of […] Dulbecco's Modified Eagle's Medium supplemented with 0.25% bovine serum albumin, N1 additives and 100 U/ml penicillin. As a positive control, nerve growth factor (NGF) was used at the saturating concentration of 5 ng/ml. After 48 h of incubation at 37° C. in a humidified atmosphere containing 5% CO2, cultures were fixed with 2.5% glutaraldehyde. Neuronal cells were identified by their phase-bright and neurite-bearing morphologies and counted within 30% of the total surface area using phase contrast microscopy. In the first set of experiments we tested the survival promoting effect of several growth factors of the bone morphogenetic protein family.
(§1) Embryonic chick ciliary (CG), dorsal root (DRG), and sympathetic (SG) ganglia at embryonic day(s) (E) 8, 10, and 12, were dissected, freed from nerve roots and connective tissue and collected in CME. Ganglia were incubated in trypsin (ICN), washed and dissociated by trituration using fire-polished Pasteur pipettes. Cultures were set up in 96-well microtiter plates (Costar, A/2), precoated with poly-L-ornithine and laminin at a density of 1,200-1,500 cells/well in DMEM supplemented with N1 additives, 0.25% BSA, and 0.1% PSN (DME/N1) and incubated at 37° C. in a 5% CO2 incubator.
(§2) At appropriate times (CG: 24 h, DRG: 48 h, SG: 72 h) cultures were fixed by addition of 2.5% glutardialdehyde in phosphate buffered saline (PBS). Numbers of surviving neurons were determined by direct counting of 30% of the surface area using phase contrast microscopy.
Dissociated cultures of embryonic chicken dorsal root ganglia (DRGs) were generated as described in details by Krieglstein and Unsicker (Dev. Brain. Rees. 93 (1996) 10-17). Briefly, DRGs were dissected in Ca^2+-Mg^2+ free Hank's balanced salt solution (CMF). After incubation in 0.08% trypsin (BioWhittaker) for 15 min, ganglia were dissociated by gentle trituration using fire-polished Pasteur pipettes. Cells in suspension (neuron/non-neuron ratio 1:2) were seeded in polyomithin-laminin coated 96-well microtiter plates (A/2 Costar) at a density of 1,200 cells/well. Growth factors were applied at the time of plating in a final volume of 50 μl Dulbecco's Modified Eagle's Medium supplemented with 0.25% bovine serum albumin, N1 additives (Bottenstein et al., Exp. Cell Res. 125 (1980) 183-190) and 100 U/ml penicillin. As a positive control, nerve growth factor (NGF) was used at the saturating concentration of 10 ng/ml. After 48 h of incubation at 37° C. in a humidified atmosphere containing 5% CO2, cultures were fixed with 2.5% glutaraldehyde in phosphate buffered saline (PBS). Neuronal cells were identified by their phase-bright and neurite-bearing morphologies and counted within 30% of the total surface area using phase contrast microscopy. All experiments were performed in at least triplicate in two independent experiments. Data are presented as mean±SEM. Statistical comparisons were made with student's double t-test, ANOVA and MicrocalOrigin software. Differences were considered statistically significant at *P<0.05, **P<0.01, **P<0.001.

The subject of assay [2] is chick ciliary ganglionic (CG) neurons. Briefly: Survival of embryonic chick ciliary ganglionic (CG) neurons, 24 h, counting of surviving neurons. To be noted: for relative potency of TGF-β isoforms in the synergism with GDNF: not shown; for CG neuron survival with further addition of TGF-β: TGF-β 2.5 ng/ml, CNTF non-saturating, OSM, LIF, IL-6 at 10 ng/ml; for support of CG neuron survival by the single cytokine: at 10 ng/ml, without TGF-β. Here is the method:
as §1, §2
Phosphatidylinositol-specific phospholipase C (PIPLC) is an enzyme that specifically cleaves glycosyl-phosphatidylinositol (GPI) linkages. Embryonic chick ciliary ganglionic neurons (E8) were isolated and seeded as described before. Neurons were incubated for 1 h at 37° C. with 1) 100 mU PIPLC or II) 100 mU PIPLC+2 ng/ml TGFβ or III) without enzyme and then growth factors were added. The number of surviving neurons was determined 24 h later.

Assay [3] concerns chick sympathetic ganglionic (SG) neurons. Kind of assay: Survival of embryonic chick sympathetic ganglionic (SG) neurons, 72 h, counting of surviving neurons. To be noted: E8, serum-free, factor added by itself. As for the experimental part:
as §1, §2

For assay [4], the system named is dopaminergic neurons in the ventral midbrain (mesencephalic cultures E14/DIV8). Briefly: Survival of TH-immunoreactive neurons in mesencephalic cultures (E14/DIV8) treated with FGF-2. The settings on record: FGF-2 10 ng/ml, 8 days in culture. Here is the method:
FIG. 12 depicts the ffect of neutralizing endogenous TGF-β in mesencephalic neuron cul-tures. Numbers of surviving TH-immunoreactive neurons of mesencephalic cultures (E14/DIV8) after 8 days in culture treated with FGF-2 (10 ng/ml), medium only (control), in presence or absence of neutralizing antibodies to TGF-β1/-β2/-β3 (10 μg/ml). Data are given as mean±SEM (n=3), P-values are ***P<0.001 for increased survival as compared with control cultures and +P<0.05 or +++P<0.001 for decreased survival following antibody treatment.
Fibroblast growth factor (FGF)-2 is known to act as a neurotrophic factor for dopaminergic neurons in the ventral midbrain. […] As TGF-β is known to be a product of astroglial cells, it was tested whether TGF-β-neutralizing antibodies can abolish the neurotrophic effect of FGF-2 on cultured neurons derived from the embryonic midbrain floor.

Assay [5] deals with rat embryonic mesencephalic dopaminergic neurons (E14). Kind of assay: Survival of rat embryonic mesencephalic dopaminergic neurons, count of tyrosine hydroxylase (TH) immunoreactive neurons after 8 days. The settings on record: GDNF 10 ng/ml, TGF-β3 2 ng/ml, 8 days in culture. Here is the method: FIG. 8 depicts the survival promoting effect of GDNF on rat embryonic mesencephalic dopaminergic neurons (E14) is dependent on the presence of TGF-β. Dissociated cultures were treated with GDNF (10 ng/ml), with GDNF in the presence of anti-TGF-β1, -β2, -β3 (10 μg/ml), with TGF-β3 (2 ng/ml) or without any growth factor added (control) for 8 days in culture. Numbers of dopaminergic neurons were determined by counting the numbers of tyrosine hydroxylase (TH) immunoreactive neurons.

Where [6] appears, read: PIPLC 0.1 U/ml prior to plating.

Consider TGF-β3: isoform of TGF-β, for which the “effect on DRG neuron survival when added together with GDF-5” value (“effect on DRG neuron survival” below) in assay [1] is “synergistic or additive effects”. Also, in assay [2], the “relative potency of TGF-β isoforms in the synergism with GDNF” value (shortened to “relative potency of TGF-β isoforms”) is “equipotent”.
For the substance “Phosphatidylinositol-specific phospholipase C [PIPLC, reference compound]”, in assay [2] (setting [6]), the “effect of PIPLC pretreatment on the survival promoting effect of CNTF” value is given as “effectively reduced the survival promoting effect of CNTF”, the “effect of PIPLC pretreatment on the survival promoting effect of FGF-2” value is “without affecting the survival promoting effect of FGF-2” and the “effect of PIPLC pretreatment on the survival promoting effect of GDNF with TGF-β” value is recorded as “significantly reduced the survival promoting effect of GDNF in its combination with TGF-β”. For the same substance, the “effect of PIPLC pretreatment in the presence of TGF-β on the survival promoting effect of GDNF” value in assay [2] (PIPLC pretreatment with 2 ng/ml TGF-β1) is “the survival promoting effect of GDNF was maintained”.
Turning to TGF-β1: isoform of TGF-β, in assay [1] (E8, serum-free, factor added by itself), the “DRG neuron survival, single factor in serum-free medium” value was “virtually no survival promoting effect”. The “effect on DRG neuron survival” value in assay [1] was “synergistic or additive effects”. For the same substance, in assay [2], the “relative potency of TGF-β isoforms” value is given as “equipotent”. Besides, in assay [3], the “SG neuron survival, single factor in serum-free medium” value is listed as “virtually no survival promoting effect”.
With TGF-β2: isoform of TGF-β, the “relative potency of TGF-β isoforms” value in assay [2] was “equipotent”.
Regarding fibroblast growth factor-2 [FGF-2], in assay [1], the “effect on DRG neuron survival” value is on record as “synergistic or additive effects”. The “increase in survival of the cells compared to the negative control (medium alone)” value in assay [4] worked out at 1.7 fold.
On to interleukin-6 [IL-6], for which, in assay [2], the “CG neuron survival with further addition of TGF-β” value was “did not increase the effects of these cytokines beyond background levels” and the “support of CG neuron survival by the single cytokine” value is “did not support CG neurons”.
For leukemia inhibiting factor [LIF], in assay [2], the “CG neuron survival with further addition of TGF-β” value is “did not increase the effects of these cytokines beyond background levels” and the “support of CG neuron survival by the single cytokine” value is listed as “did not support CG neurons”.
For transforming growth factor beta [TGF-β], the “EC50 of the synergistic survival effect” value in assay [2] (factor titrated in combination with 2 ng/ml of the other factor (GDNF/TGF-β), serum-free) came out at 0.06 ng/mL. Also, the “CG neuron survival, single factor in fully-defined medium” value in assay [2] (serum-free, each at the saturating amount of 2 ng/ml) is given as “only marginal survival promoting effects”. Besides, the “survival of dopaminergic neurons relative to untreated control cultures” value in assay [5] turned out to be 200%.
Turning to transforming growth factor-a [TGF-α], the “effect on DRG neuron survival” value in assay [1] is “synergistic or additive effects”.
As to epidermal growth factor [EGF], the “effect on DRG neuron survival” value in assay [1] was “synergistic or additive effects”.
